Common to all, as to type: in vivo
Data set [1] deals with CD1 male mice. As to the kind of experiment: Mice tail suspension test (animal depression model). The protocol: In the mice tail suspension test, mice present the special quiet immobility state without any struggle in the tail suspension state, and antidepressant drugs can obviously shorten the duration of the immobility state. When tested, mice tails are fixed with clips, hanging upside-down. […] The time of immobility is recorded. The immobility indicator is “animal has no body movement in addition to breathing”. […] Laboratory Animal: CD1 mice, male, 25 g˜35 g, provided by Beijing Vital River Laboratories (VRL) (License No.: SCXK (Beijing), 2011-0011). Animals were kept in separate cages with free access to water; feed is provided by Laboratory Animal Center, Institute of Genetics and Developmental Biology, Chinese Academy of Sciences; laboratory mice ate ordinary feed. […] Drugs were delivered at 10 a.m. by intraperitoneal injection, 90 minutes after which tail suspension test statistics started. In mice tail suspension test, mice tails were stuck to a horizontal rail with tape 2 cm away from the tail tip, making animals upside down, whose heads were about 15 cm from the desktop. After observing for 6 minutes, the accumulative immobility time within the following 4 minutes was recorded. The immobility indicator was “animal has no body movement in addition to breathing”. Statistical Method: The laboratory results were all expressed by “mean value±SE”; two sample means were compared by t test.

Data set [2] relates to CD1 male mice. The experiment in a line: Mice open field test to verify central excitability. To be noted: measuring time 1 h/mouse, control 424.15+82.78 s, Anova p>0.05, N=12. An excerpt: Laboratory materials and methods are the same as Example 1 and Example 2.
Considering that the reduced immobility time of animals in classic animal depression models may be due to the central excitability effect of drugs, we conducted a mice open field test to verify the central excitability of cordycepin. Mice were processed 1 d before the open field behavior test. They were kept in the open box with 80 cm in both length and width, 40 cm in height, black wall, 16 equal sections in area, and indoor sound insulation. After the test started, mice were put in the middle of the box, and the time of mice staying in the central 4 sections was taken as a parameter. The measuring time was 1 h/mouse every time. […] Besides, there is no rising trend, so for cordycepin, the possibility of causing the manic state can be ruled out.

The test system of data set [3] is CD1 male mice. The experiment in a line: Mice forced swimming test. Conditions: for forced swimming immobility time within 4 minutes: blank control 111.96±14.58 s, mean±SE, P<0.05. The source says: “Immobility” herein refers to that “animals stop struggling in the water, or stay in a floating state, only showing nostrils for breathing with only small body movement to keep the head floating on the water”. Before the test, the drugs to be screened are given. The animals in the condition of forced swimming cannot escape from the harsh environment, leading to despairing animal behaviors. […] Laboratory Animal: CD1 mice, male, provided by Beijing Vital River Laboratories (VRL) (License No.: SCXK (Beijing), 2011-0011). Animals were kept in separate cages a week before test, with a light and shade cycle of 12 h/12 h, at room temperature 20° C.˜22° C., and with free access to water and food. Feed is provided by Laboratory Animal Center, Institute of Genetics and Developmental Biology, Chinese Academy of Sciences. CD1 mice, 7 weeks old, 25 g-35 g, were used for test after acclimating for 1 week. Mice were divided into 5 groups randomly, 8 mice for each. They were treated in the same way as Example 1: Drugs were delivered at 10 a.m. by intraperitoneal injection, once a day for 3 days, then forced swimming test started. Forced swimming test: All CD1 mice in each group were separately and vertically put into the organic glass cylinder (40 cm×14 cm in diameter) with 15 cm-depth and 23° C. water. After recoding a video of each dose group and control group for 6 minutes, the accumulative immobility time within the following 4 minutes was compared between each group. […] The laboratory results were all expressed by “mean value±SE”; two sample means were compared by t test.

[4] abbreviates: high-dose 12.5 mg/kg i.p. once a day for 3 days.
Setting [5] is: low-dose 5 mg/kg i.p. once a day for 3 days.

On to `Nc1ncnc2c1ncn2[C@@H]1O[C@H](CO)C[C@H]1O` [cordycepin, 3′-deoxyadenosine], for which the “time needed for antidepressant effect to be very obvious” value in the data set on CD1 male mice [1] (high-dose 12.5 mg/kg i.p.) amounted to 1.5 h. Besides, in the data set with CD1 male mice [1] (high-dose 12.5 mg/kg i.p., 90 min after injection), the “decrease of tail suspension immobility time vs blank control” value came to 60.8%. Moreover, in the data set with CD1 male mice [1] (high-dose 12.5 mg/kg i.p., 90 min after injection, blank control 86.43±20.37 s, mean±SE, P<0.05), the “tail suspension immobility time” value came out at 33.86 ± 7.46 s. Further, the “tail suspension immobility time vs control” value in the data set on CD1 male mice [1] (low-dose 5 mg/kg i.p., 90 min after injection) is “has not been significantly reduced”. In addition, the “time staying in the central 4 sections” value is given as 379.88+95.28 s in the data set on CD1 male mice [2] (high-dose group) and 399.75+72.25 s in the data set on CD1 male mice [2] (low-dose group). For the same compound, the “antidepressant effect compared with imipramine (15 mg/kg)” value in the data set with CD1 male mice [3] (setting [4]) was “stronger antidepressant effects”. The entries for the “decrease of forced swimming immobility time vs blank control” value in the data set with CD1 male mice [3] (setting [4]) and in the data set with CD1 male mice [3] (setting [5]) were 68.8% and 37.6%, respectively. Moreover, the “forced swimming immobility time within 4 minutes” value in the data set with CD1 male mice [3] (setting [4]) was determined as 34.94 ± 12.16 s; with CD1 male mice [3] (setting [5]), 69.88 ± 10.25 s.

The record behind these values is US9629866B2, “Use of cordycepin in manufacture of medicaments for anti-depression” (BEIJING GRAGEN BIOTECHNOLOGY CO. LTD., priority 2012, dated 2017).
